Reference: PubChem BioAssay (NCI)
Several values for one entry are separate records, joined by “and”; a condition that tells them apart may be missing. Equal values may be shown once.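 Cells were grown in 96-well plates and exposed to each compound for 48 hours at five concentrations; endpoints were interpolated linearly between bracketing concentrations, or set to the highest concentration if not reached. The concentration for 50% growth inhibition is given as GI50. TGI: total growth inhibition.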

Experiments:
Assay in all cases: growth of human tumour cells (NCI), 48 h
MALME-3M melanoma = system: MALME-3M melanoma
MDA-MB-435 = system: MDA-MB-435
SN12C renal = system: SN12C renal
HCT-15 colon = system: HCT-15 colon
SR leukemia = system: SR leukemia
ACHN renal = system: ACHN renal
OVCAR-5 ovarian = system: OVCAR-5 ovarian
NCI-H460 lung = system: NCI-H460 lung
SK-MEL-5 melanoma = system: SK-MEL-5 melanoma
OVCAR-8 ovarian = system: OVCAR-8 ovarian
HL-60(TB) leukemia = system: HL-60(TB) leukemia
TK-10 renal = system: TK-10 renal
PC-3 prostate = system: PC-3 prostate
EKVX NSCLC = system: EKVX NSCLC
CAKI-1 renal = system: CAKI-1 renal
SF-295 CNS = system: SF-295 CNS
K-562 leukemia = system: K-562 leukemia
SK-MEL-2 melanoma = system: SK-MEL-2 melanoma
NCI/ADR-RES ovarian = system: NCI/ADR-RES ovarian
MCF7 breast = system: MCF7 breast
HOP-62 NSCLC = system: HOP-62 NSCLC
HT29 colon = system: HT29 colon
786-0 renal = system: 786-0 renal
BT-549 breast = system: BT-549 breast
A549 NSCLC = system: A549 NSCLC
RXF 393 renal = system: RXF 393 renal
SK-OV-3 ovarian = system: SK-OV-3 ovarian
DU-145 prostate = system: DU-145 prostate

With `CC(C)c1cc(C(=O)N2Cc3ccc(CN4CCN(C)CC4)cc3C2)c(O)cc1O` the TGI (MALME-3M melanoma) was 1260 nM and 1660 nM, the GI50 (MDA-MB-435) was 51.4 nM and 137 nM and the TGI (MDA-MB-435) was 21100 nM and 13400 nM. For the same molecule, the GI50 (SN12C renal) was 106 nM and 498 nM, the TGI (SN12C renal) was greater than 100000 nM and the GI50 (HCT-15 colon) was 62.2 nM and 145 nM. For the same molecule, the TGI (HCT-15 colon) was > 100000 nM and 21800 nM, the GI50 (SR leukemia) was 37.1 nM and 59.3 nM and the TGI (SR leukemia) was 84000 nM and 17100 nM. The GI50 (ACHN renal) was 66.1 nM and 210 nM, the TGI (ACHN renal) was greater than 100000 nM and the TGI (OVCAR-5 ovarian) was greater than 100000 nM. The GI50 (NCI-H460 lung) was 31.1 nM and 53.4 nM, the TGI (NCI-H460 lung) was 16200 nM and 11600 nM and the GI50 (SK-MEL-5 melanoma) was 163 nM and 459 nM. The TGI (SK-MEL-5 melanoma) was 17300 nM and 16500 nM, the GI50 (OVCAR-8 ovarian) was 60.4 nM and 300 nM and the TGI (OVCAR-8 ovarian) was greater than 100000 nM. The GI50 (HL-60(TB) leukemia) was 47.9 nM and 212 nM, the TGI (HL-60(TB) leukemia) was 16200 nM and 11600 nM and the GI50 (TK-10 renal) was 42.8 nM and 381 nM. The TGI (TK-10 renal) was 49800 nM, the GI50 (PC-3 prostate) was 1970 nM and 483 nM and the TGI (PC-3 prostate) was greater than 100000 nM. For the same molecule, the GI50 (EKVX NSCLC) was 983 nM and 1270 nM, the TGI (EKVX NSCLC) was greater than 100000 nM and the GI50 (CAKI-1 renal) was 52.2 nM and 512 nM. For the same molecule, the GI50 (SF-295 CNS) was 37.1 nM and 158 nM, the TGI (SF-295 CNS) was 2060 nM and 3240 nM and the GI50 (K-562 leukemia) was 47.2 nM and 207 nM. For the same molecule, the TGI (K-562 leukemia) was > 100000 nM and 16200 nM, the GI50 (SK-MEL-2 melanoma) was 736 nM and 710 nM and the TGI (SK-MEL-2 melanoma) was 4780 nM and 20100 nM. For the same molecule, the GI50 (NCI/ADR-RES ovarian) was 245 nM and 779 nM, the TGI (NCI/ADR-RES ovarian) was greater than 90000 nM and the GI50 (MCF7 breast) was 25.4 nM and 48.4 nM. The TGI (MCF7 breast) was 24100 nM and 30500 nM, the GI50 (HOP-62 NSCLC) was 128 nM and 656 nM and the TGI (HOP-62 NSCLC) was greater than 92200 nM. For the same molecule, the GI50 (HT29 colon) was 42.8 nM and 58 nM, the TGI (HT29 colon) was > 32800 nM and 12600 nM and the GI50 (786-0 renal) was 1930 nM and 640 nM. For the same molecule, the TGI (786-0 renal) was 30500 nM and 21000 nM, the GI50 (BT-549 breast) was 15900 nM and 2390 nM and the TGI (BT-549 breast) was > 100000 nM and 30400 nM. The GI50 (A549 NSCLC) was 44 nM and 238 nM, the TGI (A549 NSCLC) was > 46000 nM and 37100 nM and the GI50 (RXF 393 renal) was 916 nM and 2360 nM. For the same molecule, the TGI (RXF 393 renal) was 30500 nM and 28800 nM, the GI50 (SK-OV-3 ovarian) was 31.5 nM and 64.4 nM and the TGI (SK-OV-3 ovarian) was 54000 nM and 18800 nM. The GI50 (DU-145 prostate) was 74.1 nM and 55.3 nM and the TGI (DU-145 prostate) was 24400 nM and 18800 nM.
